No end group written: not given here.
Experiments:
[1] = test system: Lewis lung carcinoma cell; test: In vivo HSV-tk gene introduction plus GCV, survival of mice with Lewis lung carcinoma in abdominal cavity; parameters: species or system mouse; conditions: GCV only, 30 mg/kg/day
Method: To be more specific, 1×10^5 Lewis lung carcinoma cells were transplanted in the abdominal cavity of a C57BL/6 mouse (purchased from Charles River JAPAN), and a mixture of 10 μg of the HSV-tk-expressing plasmid prepared in Example 7 and 40 nmol of the peptide of SEQ ID NO: 16 prepared in Example 1 was administered in the abdominal cavity after the cell transplantation. The mouse was also administered with GCV at a dose of 30 mg/kg/day from 1st to 8th day after the transplantation.

[2] = test system: Vero cell, T24 cell, A549 cell; test: Nucleic acid-introducing ability, luciferase-expressing plasmid (procedure of Example 9); assay type: cell-based
From the text: A cell line established from monkey kidney (Vero cell) and a human bladder cancer cell (T24 cell) purchased from American Type Culture Collection (ATCC) and human lung cancer cell (A549 cell) purchased from Dainippon Pharmaceutical were inoculated on a 24 well culture plate (manufactured by NALGEN NUNC) at 1×10^5 cells/well. Vero cell and A549 cell were cultivated in DMEM (manufactured by Life Technologies Oriental) supplemented with 10% fetal bovine serum (hereinafter referred to as FBS, manufactured by NICHIREI), and T24 cell was cultivated in McCoy's 5a (manufactured by Life Technologies Oriental) supplemented with 10% FBS in 5% CO2 atmosphere at 37° C. for 24 hours. After removing the medium, opti-MEM (manufactured by Life Technologies Oriental) prepared to have the concentration of the luciferase-expressing plasmid prepared in Example 7 of 1 μg/mL and the concentration of the peptide prepared in Example 1 of 1.25, 2.5, or 5 μM was added, and the cells were cultivated for 5 hours. Next, in the case of Vero cell and A549 cell, the culture medium was replaced with DMEM supplemented with 10% FBS, and in the case of T24 cell, the medium was replaced with McCoy's 5a supplemented with 10% FBS, and cultivation was continued in 5% CO2 atmosphere and at 37° C. for another 24 hours. The luciferase activity expressed in the cell was then measured by the method instructed in luciferase assay system (manufactured by Promega). To be more specific, the cells were washed with phosphate-buffered saline (hereinafter referred to as PBS, manufactured by SIGMA), and the cells were lyzed with Passive Lysis Buffer attached to the kit.
20 μL of this cell lysate and 100 μL of the Luciferase Assay Reagent II attached to the kit was added to a fluorescence-measuring plate (Microlite™ 1 plate, manufactured by Dynatech), and after mixing, fluorescence was measured for 1 second by using a multilabel counter (ARVO™ SY1420 MULTILABEL COUNTER, manufactured by Wallac Beltold.
Concentration of the protein in the cell lysate was measured by mixing 8 μL of the cell lysate and 200 μL of the protein assay solution (manufactured by Biorad) with 792 μL of ultrapure water in a disposable cuvette (UV fluorescent cuvette A204X, manufactured by Funakoshi), allowing the mixture to stand for 5 minutes at room temperature, and measuring the absorption at 595 nm with a spectrophotometer (DU640, manufactured by Beckman). Bovine serum albumin (BSA) was used for the standard protein. By using the thus obtained results, count per 1 second per 1 mg of protein of the cell lysate was calculated to thereby use the count as the luciferase activity, and the highest count in the three conditions of different peptide concentration was designated the gene-introducing ability of the peptide.

[3] = Affinity for phosphatidyl serine by surface plasmon resonance (Biacore 2000); assay type: binding; conditions: in the presence of 0.1 mg/mL BSA
Method: The specific affinity of the peptide for phosphatidyl serine was evaluated by means of surface plasmon resonance (SPR) using Biacore 2000 (manufactured by Biacore). To be more specific, phosphatidyl choline was immobilized on flow cell 1, and 50% of phosphatidyl serine and 50% of phosphatidyl choline were immobilized on flow cell 2 of HPA chip (manufactured by Biacore), and ability of the peptide to bind to the phospholipid was evaluated in the presence of 0.1 mg/mL BSA to thereby evaluate the affinity.

[4] = Measurement of CD spectrum with and without SDS; assay type: physicochemical; conditions: 10 mM phosphate buffer pH 7, 50 mM NaCl, 35° C.; for α-helix structure in CD spectroscopy in the presence of SDS: 5 mM SDS
Method: The peptide dissolved in 10 mM phosphate buffer (pH=7) containing 50 mM NaCl was evaluated for its CD spectrum in the presence and in the absence of 5 mM SDS by using a circular dichroism spectrophotometer (J-500A, manufactured by JASCO). The cell length was 1 mm. The measurement was conducted at 35° C. for 6 times in total.

Vero cell = test: Storage stability of the complex with nucleic acid (gene-introducing activity after 4° C., 1 week); assay type: cell-based, monkey; conditions: complex with luciferase plasmid stored at 4° C. for 1 week
Method: Luciferase-expressing plasmid was introduced in Vero cell in accordance with the procedure described in Example 9 by using the opti-MEM prepared to have a concentration of the luciferase-expressing plasmid prepared in Example 7 of 2 μg/mL and a concentration of the peptide of SEQ ID NO: 4 prepared in Example 1 of 5 μM to thereby measure the luciferase activity. The opti-MEM containing plasmid and peptide used were the one which had been prepared immediately before the gene introduction, and the one which had been prepared 1 week (7 days) in advance and stored at 4° C.
For the purpose of reference, gene-introducing activity of Lipofectin and LipofectAMINE 2000 (manufactured by Life Technologies Oriental), which are commercially available plasmid-introducing agents, were also evaluated by mixing these reagent with luciferase-expressing plasmid in accordance with the attached protocol, and evaluating their gene-introducing activity after storing at 4° C. for 1 week.

[5] = Toxicity of the peptide, tail vein administration; assay type: in vivo; conditions: female BALB/c mouse, 5 mg/kg
Method: The peptide used in the present invention was administered to a mouse from its tail vein to thereby evaluate its toxicity. The mouse used was a female BALB/c mouse of 5 week old, and the peptide was used at a dose of 5 mg/kg.

`Nc1nc(O)c2ncn(COC(CO)CO)c2n1` [GCV, ganciclovir] showed an Average survival period [1] of 14 days.
In the case of “SEQ ID NO: 25: same amino acid composition as SEQ ID NO: 1 but with an utterly random amino acid sequence (TIRYRPSHQIRLRAVLHLWIRYRPSHQIRLRAVLHWS) [reference compound]”, the “Ability of introducing the nucleic acid into a cell” value ([2]; procedure of Example 9) is reported as “neither the nucleic acid-introducing ability”, the “Binding to flow cell 2 (50% phosphatidyl serine, 50% phosphatidyl choline) and flow cell 1 (phosphatidyl choline)” value [3] is reported as “showed no binding” and the “α-helix structure in CD spectroscopy in the presence of SDS” value [4] is reported as “no α-helix structure is found even in the presence of SDS”.
With “SEQ ID NO: 4: SEQ ID NO: 1 with one or two locations in the 18 amino acid sequence substituted (TRYLRIHPRSWLHQIALRLRYLRIHPRSWLHQIALRS)” the Nucleic acid-introducing ability ([2]; luciferase plasmid 1 μg/mL, highest count of peptide 1.25, 2.5 or 5 μM, cell line not stated) was 4+ (10,000,000 to less than 100,000,000), the “Gene-introducing activity after storage relative to freshly prepared complex” value (Vero cell) was “substantially equivalent” and the “α-helix structure in CD spectroscopy in the presence of SDS” value [4] was “are in α-helix structure in the presence of SDS”. For the same compound, the “α-helix structure in CD spectroscopy in the absence of SDS” value ([4]; no SDS) was “do not take α-helix structure in an aqueous solution solely containing an inorganic salt”.
With “LARLLARLLARLLRALLRALLRAL [SEQ ID NO: 27]” the “Toxicity after tail vein administration” value [5] was “died immediately after the administration”.

Source: patent US20050277586A1, “Peptide chemically modified with polyethylene glycol” (priority 2002, published 2005)
